Test results: patent publication EP4722219A1 (Gan & Lee Pharmaceuticals Co., Ltd., priority 2023, dated 2024)

Experiments:
[1] = target: T1, AR protein (Homo sapiens, UniProt P10275); assay: AR protein degradation in VCaP cells (Western blot); format: cell-based; conditions: 8h
T1 construct: host or cells: VCaP
T1 sequence (P10275 1-920): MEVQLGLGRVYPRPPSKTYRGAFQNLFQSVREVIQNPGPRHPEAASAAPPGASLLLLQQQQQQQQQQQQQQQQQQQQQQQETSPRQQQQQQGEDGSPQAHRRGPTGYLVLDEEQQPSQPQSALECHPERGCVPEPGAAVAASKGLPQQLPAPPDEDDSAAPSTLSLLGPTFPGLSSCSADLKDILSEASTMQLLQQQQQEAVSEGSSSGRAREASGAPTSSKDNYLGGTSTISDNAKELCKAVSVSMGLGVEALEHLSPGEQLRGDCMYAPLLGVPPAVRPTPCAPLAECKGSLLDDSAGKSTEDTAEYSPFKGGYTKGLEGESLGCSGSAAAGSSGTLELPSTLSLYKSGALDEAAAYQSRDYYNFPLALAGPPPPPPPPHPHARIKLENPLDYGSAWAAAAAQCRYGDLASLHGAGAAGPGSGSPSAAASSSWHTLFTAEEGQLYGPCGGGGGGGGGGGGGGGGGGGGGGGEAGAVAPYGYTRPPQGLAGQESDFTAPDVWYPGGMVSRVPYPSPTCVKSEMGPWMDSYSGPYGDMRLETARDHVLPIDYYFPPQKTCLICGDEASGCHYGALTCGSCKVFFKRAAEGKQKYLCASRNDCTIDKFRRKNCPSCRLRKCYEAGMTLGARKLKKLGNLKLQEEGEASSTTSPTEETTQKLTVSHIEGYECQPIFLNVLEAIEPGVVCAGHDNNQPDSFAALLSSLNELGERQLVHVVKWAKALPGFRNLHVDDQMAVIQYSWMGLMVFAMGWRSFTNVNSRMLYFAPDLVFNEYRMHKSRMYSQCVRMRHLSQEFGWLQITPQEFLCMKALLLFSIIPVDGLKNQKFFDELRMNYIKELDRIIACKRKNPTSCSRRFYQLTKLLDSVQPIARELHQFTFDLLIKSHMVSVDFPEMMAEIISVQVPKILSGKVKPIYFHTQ
Summary of the method: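 AR-positive VCaP human prostate cancer cells grown in DMEM with 10% FBS were plated in six-well plates at 3×10^5 cells/well and incubated overnight. Compounds were then added at 1 µL/well alongside a solvent control and incubated for 8h. Lysates in RIPA buffer with protease inhibitor were quantified by BCA and run by SDS-PAGE. AR was detected by Western blot, and degradation was calculated from band grayscale normalized to GAPDH.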

[2] = test system: VCaP cells; assay: Inhibition of VCaP cell proliferation (WST-8); format: cell-based; conditions: 168 hours
Summary of the method: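 VCaP cells seeded at 15,000/well in DMEM + 10% FBS, treated next day with nine 5-fold dilutions from 10 µM (final) at 37°C, 5% CO2. Viability read by WST-8 absorbance at 450 nm on day 9.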

Compound | Degradation rate of AR protein in VCaP cells ([1]; 0.5 nM) [%] | Degradation rate of AR protein in VCaP cells ([1]; 5 nM) [%] | IC50 ([2]; Homo sapiens) [nM] | AR protein degradation rate at fixed concentration (%) at 0.0005 µM ([1]; 0.5 nM) [%] | AR protein degradation rate at fixed concentration (%) at 0.005 µM ([1]; 5 nM) [%] | IC50 [2] [nM]
COc1cc(O[C@H]2CC[C@H](NC(=O)c3ccc(N4CCC(CN5CCC6(CC5)COc5cc7c(cc56)n(C)c(=O)n7C5CCC(=O)NC5=O)CC4)nn3)CC2)ccc1C#N (relative stereo) [A-P-17] | 81 | 75 | 72 | – | – | –
Cn1c(=O)n(C2CCC(=O)NC2=O)c2cc3c(cc21)C1(CCN(C2CC4(CCN(c5ccc(C(=O)N[C@H]6CC[C@H](Oc7ccc(C#N)c(Cl)c7)CC6)nn5)CC4)C2)CC1)CO3 (relative stereo) [A-P-12, N-((1r,4r)-4-(3-chloro-4-cyanophenoxy)cyclohexy 1)-6-(2-(3-(2,6-dioxopiperidin-3-yl)-1-methyl-2-oxo-2,3-dihydro-1H,6H-spiro[benzofuro[5,6-d]imidazole-7,4'-piperidin]-1'-yl)-7-azaspiro[3.5]nonan-7-yl)pyridazine-3-carboxamide] | 88 | 88 | 0.023 | – | – | –
COc1cc(O[C@H]2C(C)(C)[C@H](NC(=O)c3ccc(N4CCC(F)(CN5CCC6(CC5)COc5cc7c(cc56)n(C)c(=O)n7C5CCC(=O)NC5=O)CC4)cc3)C2(C)C)ccc1C#N (stereo partly drawn) [A-P-13] | – | – | 4.3 | 44 | 77 | –
COc1cc(O[C@H]2C(C)(C)[C@H](NC(=O)c3ccc(N4CCC(F)(CN5CCC6(CCc7cc(C(=O)N[C@H]8CCC(=O)NC8=O)c(F)cc7O6)CC5)CC4)cc3)C2(C)C)ccc1C#N [A-P-52, 1'-((1-(4-(((1r,3r)-3-(4-cyano-3-methoxyphenoxy)-2,2,4,4-tetramethylcyclobutyl)carbamoyl)phenyl)-4-fluoropiperidin-4-yl)methyl)-N-((S)-2,6-dioxopiperidin-3-yl)-7-fluorospiro[chroman-2,4'-piperidin]-6-carboxamide] | -1 | 14 | 4240 | – | – | –
COc1cc(O[C@H]2C(C)(C)[C@H](NC(=O)c3ccc(N4CCC(CN5CC6(CCC7(CC6)COc6c7ccc7c6CN(C6CCC(=O)NC6=O)C7=O)C5)CC4)cc3)C2(C)C)ccc1C#N (relative stereo) [A-P-3] | 53 | 87 | 0.017 | – | – | –
COc1cc(O[C@H]2C(C)(C)[C@H](NC(=O)c3ccc(N4CCC(F)(CN5CCC6(CCc7cc(F)c(C(=O)N[C@H]8CCC(=O)NC8=O)cc7O6)CC5)CC4)cc3)C2(C)C)ccc1C#N [A-P-41] | 13 | 18 | > 10000 | – | – | –
COc1cc(O[C@H]2C(C)(C)[C@H](NC(=O)c3ccc(N4CCC5(CC4)CC(N4CCC6(CCc7cc(C(=O)N[C@H]8CCC(=O)NC8=O)c(F)cc7O6)CC4)C5)cc3)C2(C)C)ccc1C#N [A-P-37, 1'-(7-(4-(((1R,3R)-3-(4-cyano-3-methoxyphenoxy)-2,2,4,4-tetramethylcyclobutyl)carbamoyl)phenyl)-7-azaspiro[3.5]nonan-2-yl)-N-((S)-2,6-dioxopiperidin-3-yl)-7-fluorospiro[chroman-2,4'-piperidin]-6-carboxamide] | 25 | 49 | 2890 | – | – | –
COc1cc(O[C@H]2C(C)(C)[C@H](NC(=O)c3ccc(N4CCC5(CC4)CC(N4CCC6(CC4)COc4cc7c(cc46)n(C)c(=O)n7C4CCC(=O)NC4=O)C5)cc3)C2(C)C)ccc1C#N (relative stereo) [A-P-21] | 57 | 71 | 2 | – | – | –
COc1cc(O[C@H]2C(C)(C)[C@H](NC(=O)c3ccc(N4CCC(CN5CCC6(CCc7cc(C(=O)N[C@H]8CCC(=O)NC8=O)c(F)cc7O6)CC5)(OC)CC4)cc3)C2(C)C)ccc1C#N [A-P-36] | 9 | 45 | 1660 | – | – | –
C[C@H]1CC2(CCN(c3ccc(C(=O)N4CCC(CN5CCN6c7ccc(C(=O)N[C@H]8CCC(=O)NC8=O)cc7OC[C@@H]6C5)CC4)cc3)CC2)CN1c1ccc(C#N)c(Cl)c1 [A-P-69] | -9 | 18 | 1320 | – | – | –
COc1cc(O[C@H]2C(C)(C)[C@H](NC(=O)c3ccc(N4CCC(CN5CCC6(CCc7cc(F)c(C(=O)N[C@H]8CCC(=O)NC8=O)cc7O6)CC5)CC4)cc3)C2(C)C)ccc1C#N [A-P-39] | -6 | 9 | > 10000 | – | – | –
Cn1c(=O)n(C2CCC(=O)NC2=O)c2ccc3c(c21)OCC31CCN(C2CC3(CCN(c4ccc(C(=O)N[C@H]5CC[C@H](Oc6ccc(C#N)c(Cl)c6)CC5)nn4)CC3)C2)CC1 (stereo partly drawn) [A-P-25] | – | – | 0.14 | 91 | 90 | –
(R)-3-((1-(4-(((S)-2-(3-chloro-4-cyanophenyl)-3-methyl-2,8-diazaspiro[4.5]decan-8-yl)phenyl)piperidin-4-yl)methyl)-N-(((S)-2,6-dioxopiperidin-3-yl)-1,2,3,4,4a,5-hexahydrobenzo[b]pyrazi no[1,2-d][1,4]oxazine-8-carboxamide [A-P-58] | 12 | 37 | – | – | – | 1830
COc1cc(O[C@H]2C(C)(C)[C@H](NC(=O)c3ccc(N4CCC(CN5CCC6(CCc7cc(F)c(C(=O)N[C@H]8CCC(=O)NC8=O)cc7O6)CC5)(OC)CC4)cc3)C2(C)C)ccc1C#N [A-P-40] | -8 | 10 | > 10000 | – | – | –
C[C@H]1CC2(CCN(c3ccc(N4CCC(CN5CCC6(CCc7cc(C(=O)N[C@H]8CCC(=O)NC8=O)c(F)cc7O6)CC5)CC4)cc3)CC2)CN1c1ccc(C#N)c(Cl)c1 [A-P-42, 1'-((1-(4-((S)-2-(3-chloro-4-cyanophenyl)-3-methyl-2,8-diazaspiro[4.5]decan-8-yl)phenyl)piperidin-4-yl)methyl)-N-((S)-2,6-dioxopiperidin-3-yl)-7-fluorospiro[chroman-2,4'-piperidin]-6-carboxamide] | – | – | > 10000 | -40 | -4 | –
COc1cc(O[C@H]2C(C)(C)[C@H](NC(=O)c3ccc(N4CCC(CN5CCN6c7ccc(C(=O)N[C@H]8CCC(=O)NC8=O)cc7OC[C@@H]6C5)CC4)cc3)C2(C)C)ccc1C#N [A-P-67] | 20 | 70 | 170 | – | – | –
COc1cc(O[C@H]2CC[C@H](NC(=O)c3ccc(N4CCC(N5CCC6(CC5)COc5cc7c(cc56)n(C)c(=O)n7C5CCC(=O)NC5=O)CC4)nn3)CC2)ccc1C#N (stereo partly drawn) [A-P-18, N-((1r,4r)-4-(4-cyano-3-methoxyphenoxy)cyclohexyl)-6-(4-(3-(2,6-dioxopyridyl-3-yl)-1-methyl-2-oxo-2,3-dihydro-1H,6H-spiro[benzofuro[5,6-d]imidazole-7,4'-piperidin]-1'-yl)piperidin-1-yl)pyridazine-3-carboxamide] | – | – | < 0.0051 | 76 | 73 | –
COc1cc(O[C@H]2C(C)(C)[C@H](NC(=O)c3ccc(N4CCC(CN5CCC6(CCc7cc(C(=O)N[C@H]8CCC(=O)NC8=O)c(F)cc7O6)CC5)CC4)cc3)C2(C)C)ccc1C#N [A-P-30] | 36 | 71 | 1000 | – | – | –
COc1cc(O[C@H]2C(C)(C)[C@H](NC(=O)c3ccc(N4CCC(CN5CCN(c6ccc(C(=O)N[C@H]7CCC(=O)NC7=O)c(F)c6)CC5)CC4)cc3)C2(C)C)ccc1C#N [ARV-766, reference compound] | 9 | 80 | – | – | – | 779
N-(1r,4r)-4-(3-chloro-4-cyanophenoxy)cyclohexy 1)-6-(4-(7-(2,6-dioxopiperidin-3-yl))-6-oxo-7,8-dihydro-2H,6H-dipyrido[2,3-e]isoindole-3,1'-cyclohexane-4',4‴-piperidin]-1"-yl)pyridazine-3-carboxamide [A-P-32] | 14 | 59 | – | – | – | 1230
